Experimental data taken from patent US6417233B1, “Ubiguinone-containing composition suitable for promoting enhanced intramitochondrial transportation of ubiguinones and methods of using same” (Sigma-Tau HealthScience S.p.A., priority 1998, dated 2002).

System: normal human photoreceptors cells
Experiment: In vitro study of photoreceptor membranes exposed to oxido-reductive stress
Type: cell-based
Settings: exposure to strong electron donor substances; result in words
Excerpt: The mitochondrial membranes are more basophilic, and they contain more unsaturated lipids than the disc membranes of the outer segments.

chlorpromazines
disc membranes: disrupted the disc membranes in dose dependent manner
structure of mitochondrial membranes: slighly altered
